Measurements: article PMC8279416, “Structural Fine-Tuning of Desmuramylpeptide NOD2 Agonists Defines Their In Vivo Adjuvant Activity” (Journal of Medicinal Chemistry, 2021)
Several values for one entry are separate records, joined by “and”; a condition that tells them apart may be missing. Identical values can stand only once.

Biological target: T1, NOD2 (Homo sapiens, UniProt Q9HC29)
T1 construct: host or cells: HEK-Blue NOD2 cells (HEK293-derived)
Test: HEK-Blue NOD2 cell line reporter assay (NF-κB-inducible SEAP)
Type: cell-based
Settings: for EC50 / NOD2 activity at 2 μM (fold increase) / NOD2 activation (in words): HEK-Blue NOD2 cells; for NOD2 activity at 2 μM (fold increase): NF-κB transcriptional (SEAP) activity relative to 0.1% DMSO; for NOD2 activation (in words): compound alone
Protocol: To determine the NOD2 agonistic potential of the synthesized desmuramylpeptides at the cellular level, we used the validated and commercially available HEK-Blue NOD2 cell line reporter assay. HEK-Blue NOD2 cells were first treated for 18 h with MDP, 1, or the novel desmuramylpeptides at 2 μM. The NF-κB transcriptional activity measured was normalized to that of the vehicle treated (0.1% DMSO) control HEK-Blue NOD2 cells.
HEK-Blue NOD2 and NOD1 cell line reporter assays are derived from HEK293 cells by cotransfection of the hNOD2 or hNOD1 genes, respectively, and an NF-κB-inducible secreted embryonic alkaline phosphatase (SEAP) reporter gene. Following activation of NOD2 or NOD1, the resulting NF-κB induces production of SEAP, the levels of which can be quantified colorimetrically. […] After 18 h of incubation (37 °C, 5% CO2), secreted embryonic alkaline phosphatase (SEAP) activity was determined spectrophotometrically as absorbance at 630 nm (BioTek Synergy microplate reader; Winooski, VT, U.S.A.). EC50 values were calculated using Prism software (version 9; GraphPad Software, CA, U.S.A.). For determination of specificity, HEK-Blue NOD2 cells (2.5 × 10^5 cells/mL) were first pretreated for 1 h with a 10 μM NOD2 antagonist, before the addition of the compounds (2 μM), with incubation for 18 h. SEAP activity in the supernatants was determined as above. The experiments were run in duplicate and repeated as at least two independent biological replicates.

[1] = 18 h, 7 or 8 concentrations 1 nM to 20 μM, mean ± SEM

T1 sequence (Q9HC29 whole entry): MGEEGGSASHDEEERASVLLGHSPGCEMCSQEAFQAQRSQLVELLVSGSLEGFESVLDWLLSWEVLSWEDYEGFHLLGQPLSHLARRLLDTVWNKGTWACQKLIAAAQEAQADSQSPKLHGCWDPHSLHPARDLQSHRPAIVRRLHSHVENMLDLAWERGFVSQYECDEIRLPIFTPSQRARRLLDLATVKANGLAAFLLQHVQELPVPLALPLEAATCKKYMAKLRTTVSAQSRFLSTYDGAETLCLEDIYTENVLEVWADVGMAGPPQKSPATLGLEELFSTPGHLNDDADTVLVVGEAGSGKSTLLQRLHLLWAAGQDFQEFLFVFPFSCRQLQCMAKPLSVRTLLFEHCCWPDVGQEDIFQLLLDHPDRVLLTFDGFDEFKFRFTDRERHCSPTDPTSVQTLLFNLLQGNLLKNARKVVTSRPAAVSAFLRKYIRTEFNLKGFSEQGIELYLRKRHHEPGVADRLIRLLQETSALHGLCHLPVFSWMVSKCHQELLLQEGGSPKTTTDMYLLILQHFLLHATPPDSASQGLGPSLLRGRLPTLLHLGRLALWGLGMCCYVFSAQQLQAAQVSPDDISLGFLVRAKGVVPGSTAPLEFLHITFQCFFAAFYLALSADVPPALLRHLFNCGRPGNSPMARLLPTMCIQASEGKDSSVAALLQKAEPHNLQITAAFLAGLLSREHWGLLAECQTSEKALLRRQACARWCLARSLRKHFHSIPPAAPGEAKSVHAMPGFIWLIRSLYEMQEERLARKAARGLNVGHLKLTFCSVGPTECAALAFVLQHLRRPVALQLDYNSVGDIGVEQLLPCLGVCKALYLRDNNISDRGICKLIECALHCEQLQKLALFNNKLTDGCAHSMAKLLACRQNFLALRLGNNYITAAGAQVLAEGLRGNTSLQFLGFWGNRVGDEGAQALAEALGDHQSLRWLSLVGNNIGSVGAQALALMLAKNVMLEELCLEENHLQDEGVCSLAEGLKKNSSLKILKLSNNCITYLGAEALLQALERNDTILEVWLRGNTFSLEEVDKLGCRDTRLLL

SMILES	EC50 [µM]	NOD2 activity at 2 μM (fold increase) (18 h, mean ± SEM)	EC50 [1] [µM]	NOD2 activation (in words)	Decrease of NOD2 agonistic activity/potency by a factor, relative to 1 (ratio of EC50 versus compound 1)
CCOC(=O)CC[C@@H](NC(=O)[C@H](COCc1ccccc1)NC(=O)CNC(=O)/C=C/c1ccc(O)c(OC)c1)C(=O)OCC [Compound 30, Diethyl O-Benzyl-N-(((E)-3-(4-hydroxy-3-methoxyphenyl)acryloyl)glycyl)-L-seryl-D-glutamate]	5.56	2.04 fold increase and 2.04 ± 0.02 fold increase	5.56 ± 1.47	–	–
CCCCCCCCCCCCCCCCCC(=O)Oc1ccc(/C=C/C(=O)NCC(=O)N[C@@H](CO)C(=O)N[C@H](CCC(=O)OCC)C(=O)OCC)cc1OC [Compound 80, Diethyl ((E)-3-(3-Methoxy-4-(stearoyloxy)phenyl)acryloyl)glycyl-L-seryl-D-glutamate]	–	1.21 fold increase and 1.21 ± 0.06 fold increase	–	–	–
CCCCCCCCCCCCCCCCCC(=O)NCCCC[C@H](NC(=O)CC[C@@H](NC(=O)[C@@H](NC(=O)CNC(=O)/C=C/c1ccc(O)c(OC)c1)C(C)C)C(=O)OCC)C(=O)OC [Compound 82, Methyl N^2-((R)-5-Ethoxy-4-((S)-2-(2-((E)-3-(4-hydroxy-3-methoxyphenyl)acrylamido)acetamido)-3-methylbutanamido)-5-oxopentanoyl)-N^6-stearoyl-L-lysinate]	11.5	2.00 ± 0.03 fold increase	11.5 ± 3.91	–	–
CCCCCCCCCCCCCCCCCCOC(=O)CC[C@@H](NC(=O)[C@@H](NC(=O)CNC(=O)/C=C/c1ccc(O)c(OC)c1)C(C)C)C(=O)OCCCCCCCCCCCCCCCCCC [Compound 72, Dioctadecyl ((E)-3-(4-Hydroxy-3-methoxyphenyl)acryloyl)glycyl-L-valyl-D-glutamate]	–	1.32 ± 0.02 fold increase	–	almost completely abrogated the NOD2 agonistic activity	–
COc1cc(/C=C/C(=O)NCC(=O)N[C@H](C(=O)N[C@H](CCC(=O)OC(C)(C)C)C(=O)OC(C)(C)C)C(C)C)ccc1O [Compound 56, Di-tert-butyl ((E)-3-(4-Hydroxy-3-methoxyphenyl)acryloyl)glycyl-L-valyl-D-glutamate]	–	1.20 ± 0.10 fold increase	–	markedly reduced NOD2 activation	–
CCOC(=O)CC[C@@H](NC(=O)[C@@H](NC(=O)CNC(=O)/C=C/c1ccc(OC)c(OC)c1)C(C)C)C(=O)OCC [Compound 20, Diethyl ((E)-3-(3,4-Dimethoxyphenyl)acryloyl)glycyl-L-valyl-D-glutamate]	–	2.64 ± 0.01 fold increase	0.763 ± 0.088	–	–
CCCCNC(=O)CC[C@@H](NC(=O)[C@@H](NC(=O)CNC(=O)/C=C/c1ccc(O)c(OC)c1)C(C)C)C(=O)OC(C)(C)C [Compound 59, tert-Butyl N^5-Butyl-N^2-((E)-3-(4-hydroxy-3-methoxyphenyl)acryloyl)glycyl-L-valyl-D-glutaminate]	–	1.32 ± 0.05 fold increase	–	–	–
CCOC(=O)CC[C@@H](NC(=O)[C@H](CO)NC(=O)CNC(=O)/C=C/c1ccc(O)c(OC)c1)C(=O)OCC [Compound 31, Diethyl ((E)-3-(4-Hydroxy-3-methoxyphenyl)acryloyl)glycyl-L-seryl-D-glutamate]	–	1.21 fold increase and 1.21 ± 0.08 fold increase	> 20	–	–
CCOC(=O)CC[C@@H](NC(=O)[C@@H](NC(=O)CNC(=O)[C@H]1C[C@@H]1c1ccc(F)c(F)c1)C(C)C)C(=O)OCC [Compound 29a]	–	2.46 ± 0.12 fold increase	0.066 ± 0.005	–	–
CCOC(=O)CC[C@@H](NC(=O)[C@@H](NC(=O)CNC(=O)CCCc1ccc(O)c(OC)c1)C(C)C)C(=O)OCC [Compound 19, Diethyl (4-(4-Hydroxy-3-methoxyphenyl)butanoyl)glycyl-L-valyl-D-glutamate]	–	1.73 ± 0.01 fold increase	13.9 ± 0.8	–	156
